According to patent publication US8598132B2, “Glycosylated indolocarbazoles, method for obtaining same and uses thereof” (Universidad de Oviedo, priority 2008, dated 2013):

Key:
Format in all cases: biochemical
SYK = target: T1, SYK (Homo sapiens, UniProt P43405); test: LabChip (Caliper) kinase assay, SYK; settings: for inhibition at 0.01 µM: compound at 10 nM; for inhibition at 0.01 µM / inhibition at 0.1 µM: read-out: remaining kinase activity (in %) / percentage of inhibition; for inhibition at 0.1 µM: compound at 100 nM; for IC50: ATP at Km, read-out: CI50 (the source's name)
T1 construct: purchased Carna Biosciences
Description: (§1) The analysis of kinase activity described here was performed using LabChip (Caliper Life Sciences), specifically the Caliper LC3000 and the EZ Reader II instruments.
(§2) The kinase assay used measures the conversion of a fluorescent peptide (substrate) to a phosphorylated product. The reaction mixture, in a microplate well, is introduced by a capillary in a chip where the non-phosphorylated substrate and the phosphorylated product are separated by […]. The intensity of the fluorescent signal over time is related to the reaction progress. The phosphorylated product migrates quicker than the non-phosphorylated substrate and the signals of the two forms of the peptide appear as differentiated peaks. The Caliper determines the peak height and calculates the ratio of product to the peak sum (P/(P+S)). This value is used to compare wells with compounds and wells with controls and thus determine the % of inhibition for the given product.
(§3) The followings kinases were used for the enzymatic inhibition studies, between brackets the value of the Michaelis-Menten constant, Km, of the ATP (Adenosine triphosphate) for each kinase, in μM: obtained from Carna Biosciences: MAPKAPK2 (4.6), AurA (3.6), AurB (5), PKCζ (3.8), RSK1 (23.3), PRAK (5), Erk1 (33.4), PKD2 (32.1), CK1d (16.3), CHK1 (33), ABL (61.7), FYN (36), LYNa (17), CHK2 (57.8), MET (79.5), LCK (28.5), SRC (38), GSK3β (7.3), Erk2 (62.1), PKACα (1.7), AKT2 (186.1), INSR (871.8), p38a (396.5), AKT1(48), MSK1 (21.2), PKCβ2 (84.8), ROCK2 (3.3), PIM2 (4.9), AMPK (38.6), KDR (164.8), IRAK4 (196.5), SGK1 (121.8), SYK (33.5); obtained from Invitrogen: CDK2 (57.6), BTK (123), HGK (80); obtained from Upstate: MST2 (36.6), PKGα (16), PAK2 (1.9), IGF1R (320), FGFR1 (171), MARK1 (33), CAMK2δ (22.4), c-TAK1 (66), DYRK1a (18.1), CaMK4 (3.9), FLT3 (350), c-Raf (6.2), P70S6K (95).
(§4) The compounds were dissolved in 100% DMSO and were diluted at 25 times the final concentration desired for the assay. In the case of the determination of Cl50, serial dilutions were made to reach eight concentrations and give rise to the inhibition curve. 1 μL of each concentration is transferred, in duplicate to a 384-well microplate. 12 μL of enzymatic buffer is added to each well containing purified kinase (several suppliers as indicated above), 100 mM HEPES, pH 7.5, 1 mM DTT (Calbiochem), 0.002% Brij-35 (Sigma) and also in presence of 10 mM MgCl2 as cofactor, except for INSR and IRAK4 wherein 10 mM MnCl2 is used instead of MgCl2. For the kinases CAMK26 and CAMK4, 1 mM CaCl2 and 6.7 μg/mL of calmodulin are also added. For KDR kinase, 0.05% of the CHAPSO detergent is added. For the c-Raf kinase, 10 mM MnCl2 is added. For PKCβ2 0.02 μg/mL of PS/PMA is added. For PKGα se 10 μM of cGMP (cyclic guanosine monophosphate) is added. The compound and the enzyme are left for 15 minutes preincubation and, then, the following are added to each well: 12 μL of peptide buffer/ATP containing 100 mM HEPES, pH 7.5, 1.5 μM peptide marker with fluorescein (specific for the corresponding kinase), ATP (at concentration KM), and 0.002% Brij-35 to start the reaction. Generally, the reactions are incubated for 1-1.5 h at ambient temperature to obtain an adequate conversion (15-40%) of the peptide to the phosphorylated product. The reactions were ended by the addition of 45 μL of buffer containing 0 mM EDTA. The microplates were read by the LabChip 3000 using a 12-channel LabChip. The P/(P+S) values were obtained as described above and the CI50 curves were generated using XIfit.
(§5) Table 9a has the 0150 data obtained in pairs of compound-kinase selected from the compounds of formula (VII), (VIII), (IX), (XVI), (XVII) and (XVIII) after taking inhibition measurements at 100 nM and 10 nM. Those couples that provide >70% of inhibition at 10 nM were consider for measuring its IC50. […]

Ikkb = target: T2, Ikkb (Homo sapiens, UniProt O14920); test: LabChip (Caliper) kinase assay, Ikkb; settings: for inhibition at 0.01 µM: compound at 10 nM; for inhibition at 0.01 µM / inhibition at 0.1 µM: read-out: remaining kinase activity (in %) / percentage of inhibition; for inhibition at 0.1 µM: compound at 100 nM; for IC50: ATP at Km, read-out: CI50 (the source's name)
T2 sequence (O14920 1-756): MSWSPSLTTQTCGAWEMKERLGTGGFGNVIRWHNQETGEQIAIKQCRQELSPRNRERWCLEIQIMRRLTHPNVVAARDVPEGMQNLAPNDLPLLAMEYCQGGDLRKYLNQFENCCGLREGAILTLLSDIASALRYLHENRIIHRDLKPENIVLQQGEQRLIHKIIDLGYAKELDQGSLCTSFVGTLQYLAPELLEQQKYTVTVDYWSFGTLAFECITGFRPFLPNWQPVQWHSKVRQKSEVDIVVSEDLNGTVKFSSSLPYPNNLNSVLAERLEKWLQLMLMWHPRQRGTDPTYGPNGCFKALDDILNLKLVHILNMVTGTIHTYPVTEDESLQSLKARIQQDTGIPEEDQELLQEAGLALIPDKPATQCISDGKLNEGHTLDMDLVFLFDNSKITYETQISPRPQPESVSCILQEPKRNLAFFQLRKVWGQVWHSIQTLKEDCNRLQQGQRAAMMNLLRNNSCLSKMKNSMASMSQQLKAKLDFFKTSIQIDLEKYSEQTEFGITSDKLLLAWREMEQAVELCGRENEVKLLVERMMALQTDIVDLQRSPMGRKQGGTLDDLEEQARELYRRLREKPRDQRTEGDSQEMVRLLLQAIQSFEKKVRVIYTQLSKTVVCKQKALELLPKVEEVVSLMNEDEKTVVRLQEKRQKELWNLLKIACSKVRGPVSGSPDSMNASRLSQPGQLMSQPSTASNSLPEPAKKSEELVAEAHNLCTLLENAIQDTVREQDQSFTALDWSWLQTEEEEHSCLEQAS
Description: as §1, §2, §3, §4, §5

JAK2 = JAK2 (Homo sapiens, UniProt O60674); test: LabChip (Caliper) kinase assay, JAK2; settings: for inhibition at 0.01 µM / inhibition at 0.1 µM: JAK2, read-out: remaining kinase activity (in %) / percentage of inhibition; for inhibition at 0.01 µM: compound at 10 nM; for inhibition at 0.1 µM: compound at 100 nM; for IC50: Jak2, ATP at Km, read-out: CI50 (the source's name)
Description: as §1, §2, §3, §4, §5

Chain of JAK2 (O60674 whole entry, species assumed): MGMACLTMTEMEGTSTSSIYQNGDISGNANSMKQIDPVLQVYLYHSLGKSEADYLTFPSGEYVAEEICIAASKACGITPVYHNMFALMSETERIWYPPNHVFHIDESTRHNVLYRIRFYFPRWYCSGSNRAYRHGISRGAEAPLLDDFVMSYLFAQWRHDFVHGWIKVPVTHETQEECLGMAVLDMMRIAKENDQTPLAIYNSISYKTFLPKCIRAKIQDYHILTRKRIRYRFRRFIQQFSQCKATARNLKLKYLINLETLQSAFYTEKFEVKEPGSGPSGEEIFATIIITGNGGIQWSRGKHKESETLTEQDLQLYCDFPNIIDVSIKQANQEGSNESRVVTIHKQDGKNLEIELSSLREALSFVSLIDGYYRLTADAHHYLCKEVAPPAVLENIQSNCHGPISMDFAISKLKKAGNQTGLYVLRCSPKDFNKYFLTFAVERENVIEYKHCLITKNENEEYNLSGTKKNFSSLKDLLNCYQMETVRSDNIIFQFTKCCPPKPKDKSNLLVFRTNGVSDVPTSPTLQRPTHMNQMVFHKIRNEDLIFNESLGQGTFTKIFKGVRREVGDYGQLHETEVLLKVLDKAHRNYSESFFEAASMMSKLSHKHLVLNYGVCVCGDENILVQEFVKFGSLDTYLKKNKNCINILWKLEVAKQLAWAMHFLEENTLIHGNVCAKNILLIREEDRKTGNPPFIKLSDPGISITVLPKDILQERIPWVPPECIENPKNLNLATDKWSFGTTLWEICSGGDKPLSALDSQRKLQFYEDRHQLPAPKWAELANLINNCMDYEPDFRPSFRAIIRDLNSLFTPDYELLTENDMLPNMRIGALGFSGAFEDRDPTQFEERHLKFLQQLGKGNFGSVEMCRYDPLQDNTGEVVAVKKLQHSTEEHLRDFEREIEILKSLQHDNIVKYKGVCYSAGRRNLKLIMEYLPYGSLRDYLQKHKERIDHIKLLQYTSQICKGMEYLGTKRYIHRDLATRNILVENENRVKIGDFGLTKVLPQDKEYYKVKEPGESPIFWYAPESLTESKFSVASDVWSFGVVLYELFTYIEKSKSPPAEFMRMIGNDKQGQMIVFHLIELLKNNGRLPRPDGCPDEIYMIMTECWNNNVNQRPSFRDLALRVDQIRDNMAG

Structure (SMILES)	inhibition at 0.01 µM (SYK) [%]	inhibition at 0.1 µM (SYK) [%]	inhibition at 0.01 µM (Ikkb) [%]	inhibition at 0.1 µM (Ikkb) [%]	inhibition at 0.01 µM (JAK2) [%]	inhibition at 0.1 µM (JAK2) [%]	IC50 (SYK) [nM]	IC50 (Ikkb) [nM]	IC50 (JAK2) [nM]
C[C@@H]1O[C@@H](n2c3ccccc3c3c4c(c5c6ccccc6[nH]c5c32)C(=O)NC4=O)C[C@H](O)[C@H]1O [formula (IV), N^13-1′-β-L-olivosylarcyriaflavin]	11	35	9	60	19	74			
C[C@]12O[C@H](C[C@H](O)[C@H]1O)n1c3ccccc3c3c4c(c5c6ccccc6n2c5c31)C(=O)NC4=O [formula (VIII), N^12-5′(S)-N^13-1′-(R)-L-olivosylarcyriaflavin]							1.1	< 0.03	0.74
C[C@H]1O[C@@H](n2c3ccccc3c3c4c(c5c6ccccc6[nH]c5c32)CNC4=O)C[C@@H](O)[C@@H]1O [formula (XV), N^13-1′-β-D-olivosyl-k252c]	7	29	-5	16	37	89			
C[C@]12O[C@H](C[C@@H](O)[C@H]1O)n1c3ccccc3c3c4c(c5c6ccccc6n2c5c31)CNC4=O [formula (XVIII), N^12-5′(S)-N^13-1′-(R)-L-digitoxosyl-k252c]							> 10	> 100	0.53
C[C@]12O[C@H](C[C@H](O)[C@H]1O)n1c3ccccc3c3c4c(c5c6ccccc6n2c5c31)CNC4=O [formula (XVII), N^12-5′(S)-N^13-1′-(R)-L-olivosyl-k252c]									0.57
C[C@@H]1O[C@@H](n2c3ccccc3c3c4c(c5c6ccccc6[nH]c5c32)CNC4=O)[C@H](O)[C@H](O)[C@H]1O [formula (XII), N^13-1′-β-L-rhamnosyl-k252c]	8	10	-5	12	7	39			
C[C@@H]1O[C@@H](n2c3ccccc3c3c4c(c5c6ccccc6[nH]c5c32)CNC4=O)C[C@@H](O)[C@H]1O [formula (XIV), N^13-1′-β-L-digitoxosyl-k252c]	-1	11	27	24	-4	25			
C[C@]12O[C@H](C[C@@H](O)[C@H]1O)n1c3ccccc3c3c4c(c5c6ccccc6n2c5c31)C(=O)NC4=O [formula (IX), N^12-5′(S)-N^13-1′-(R)-L-digitoxosylarcyriaflavin]							2.3	> 10	1.2
C[C@@H]1O[C@@H](n2c3ccccc3c3c4c(c5c6ccccc6[nH]c5c32)CNC4=O)C[C@H](O)[C@H]1O [formula (XIII), N^13-1′-β-L-olivosyl-k252c]	12	30	-5	33	14	79			
C[C@]12O[C@H]([C@H](O)[C@H](O)[C@H]1O)n1c3ccccc3c3c4c(c5c6ccccc6n2c5c31)C(=O)NC4=O [formula (VII), N^12-5′(S)-N^13-1′-(R)-L-rhamnosylarcyriaflavin]							1	0.17	0.5
C[C@]12O[C@H]([C@H](O)[C@H](O)[C@H]1O)n1c3ccccc3c3c4c(c5c6ccccc6n2c5c31)CNC4=O [formula (XVI), N^12-5′(S)-N^13-1′-(R)-L-rhamnosyl-k252c]									0.43
C[C@@H]1O[C@@H](n2c3ccccc3c3c4c(c5c6ccccc6[nH]c5c32)C(=O)NC4=O)C[C@@H](O)[C@H]1O [formula (V), N^13-1′-β-L-digitoxosylarcyriaflavin]	13	24	37	76	23	65			
C[C@@H]1O[C@@H](n2c3ccccc3c3c4c(c5c6ccccc6[nH]c5c32)C(=O)NC4=O)[C@H](O)[C@H](O)[C@H]1O [formula (III), N^13-1′-β-L-rhamnosylarcyriaflavin]	2	-8	-10	32	-3	33			
C[C@H]1O[C@@H](n2c3ccccc3c3c4c(c5c6ccccc6[nH]c5c32)C(=O)NC4=O)C[C@@H](O)[C@@H]1O [formula (VI), N^13-1′-β-D-olivosylarcyriaflavin]	5	31	7	50	42	88			
